Data as given in patent publication US20040235920A1, “Novel use of substituted aminomethyl chromans for the treatment of movement disorders and of adverse effects induced by drugs administered to treat extrapyramidal movement disorders” (priority 2001, published 2004).

Tests used:
[1] = tested on: Parkinsonian cynomolgus monkey; assay: MPTP Parkinsonian cynomolgus monkey chronically treated with l-dopa (Abnormal Involuntary Movement Scale, rating for psychotic states); type: in vivo; settings: MPTP monkeys, long-term l-dopa
Protocol: Treatment of adverse effects of conventional anti-Parkinsonian drugs as defined above are determined in a modification of the animal model of the Parkinsonian cynomolgus monkey according to P. J. Blanchet et al., Exp. Neurology 1998; 153: 214-222. Monkeys render parkinsonian by repeated injections of 1-methyl-4-phenyl-1,2,3,6-tetrahydropyridine (MPTP). The Parkinsonian monkeys are chronically treated with the standard l-dopa therapy according to P. J. Blanchet et al., Mov. Disord., 1998; 13: 798-802. Longterm treatment with l-dopa induces extrapyramidal motor side effects and psychotic states which are both qualitatively and quantitatively, assessed by the Abnormal Involuntary Movement Scale (P. J. Blanchet et al., Mov. Disord. 1998; 13: 798-802) for different body parts (face, neck, trunk, each limb) and by rating for psychotic states by observing the monkey's attention, reactivity and mobility. (−)-(R)-2-{4-[[3,4-dihydro-2H-benzopyran-2-yl)-methyl]amino]butyl}-1,2-benzoisothiazol-3-(2H)-on-1,1-dioxide reduced overall choreiform dyskinesias and dystonic dyskinesias as well as psychotic states.

[2] = tested on: reserpinized rat or mouse; assay: Reserpinized rat or mouse, akinesia in activity meters; type: in vivo; settings: 24 h after reserpine
Protocol: A typical animal model is the reserpinized rat or mouse (e.g. M. S. Starr and B. S. Starr, J. Neural Transm.—Park. Dis. Dement. Sect., 1994; 7: 133-142; M. Gossel et al., J. Neural Transm.—Park. Dis. Dement. Sect., 1995; 10: 27-39; N. R. Hughes et al., Mov. Disord., 1998; 13: 228-233). Reserpine is a potent depleter of monoamines and produces nearly complete akinesia in both species. Prominent 24 h after application, the distance travelled and the time active is nearly zero as measured in conventional activity meters.

3-NP treated rats = assay: Systemic 3-nitropropionic acid (3-NP) model in rats, nocturnal activity; type: in vivo, rat
Protocol: A typical animal model is the systemic 3-nitropropionic acid (3-NP) model in rats according to C. V. Borlongan et al., Brain Res., 1995; 697: 254-257. Rats are treated with injections of the selective striatal neurotoxin 3-NP i.p. every fourth day (C. V. Borlongan et al., Brain Res. Protocols, 1997; 1: 253-257). After two injections of 3-NP, rats display nocturnal hyperactivity reflecting symptoms of early Huntington's disease, whereas rats treated with four injections of 3-NP display nocturnal akinesia (hypoactivity) reflecting symptoms of late Huntington's disease. Nocturnal activity is automatically measured in conventional acitivity cages by infrared beams. (−)-(R)-2-{4-[[3,4-dihydro-2H-benzopyran-2-yl)-methyl]amino]butyl}-1,2-benzoisothiazol-3-(2H)-on-1,1-dioxide or a pharmaceutical acceptable salt thereof reduced both the nocturnal hyperactivity and akinesia.

[3] = tested on: patients with Huntington's disease; assay: Add-on trial in patients with Huntington's disease (AIMS, UHDRS); type: in vivo, human; settings: 2.5 to 20 mg b.i.d., typical trial
Protocol: A typical trial to establish the effect of the compounds according to the invention on chorea, voluntary motor performance, and functional disability in patients with Huntington's disease encompasses 32 genetically diagnosed patients. (−)-(R)-2-{4-[[3,4-dihydro-2H-benzopyran-2-yl)-methyl]amino]butyl}-1,2-benzoisothiazol-3-(2H)-on-1,1-dioxide monohydrochloride or placebo is administered as “add on” to the conventional treatment, which is maintained unchanged during the whole study. The dose of blinded medication is titrated over a period of 3 weeks in a range from 2.5 to 20 mg b.i.d. Then the medication is held constant for 1 week. Assessments are performed in the week before and at the last day of the trial. Chorea is scored using the abnormal involuntary movement scale (AIMS, W. Guy, in: ECDEU assessment manual. Rockville Md: US dept. of health, education and welfare, 1976: 534-537), the unified Huntington's disease rating scale (UHDRS, Huntington study group, 1996, Movement Disord, 11: 136-42), and judgement of video recordings. Voluntary motor performance is assessed using the UHDRS motor scale. Patients and their partners complete a questionnaire regarding functional disability.

[4] = tested on: rats challenged with haloperidol; assay: Neuroleptics-induced muscle rigidity in rats (haloperidol); type: in vivo, rat; settings: resistance to passive flexion and extension of the hind limb
From the text: A typical animal model is neuroleptics-induced muscle rigidity in rats according to S. Wolfarth et al., Arch. Pharmacol. 1992; 345: 209-212. Rats are challenged with the conventional neuroleptic drug haloperidol which enhances muscle tone. Muscle tone is electromechanically measured as the resistence to passive flexion and extension of the hind limb. (−)-(R)-2-{4-[[3,4-dihydro-2H-benzopyran-2-yl)-methyl]amino]butyl}-1,2-benzoisothiazol-3-(2H)-on-1,1-dioxide or a pharmaceutically acceptable salt thereof decreased the muscle tone enhanced by haloperidol.

[5] = tested on: neuroleptics sensitized monkey; assay: Neuroleptics sensitized monkey, haloperidol challenge; type: in vivo; settings: after haloperidol challenge, scoring system
From the text: Another typical animal model is the neuroleptics sensitized monkey according to D. E. Casey, Psychopharmacology, 1996; 124: 134-140. Monkeys treated repeatedly with conventional neuroleptics are highly sensitive to a subsequent challenge dose of neuroleptic drugs. When challenged, the monkeys immediately show extrapyramidal motor side effects such as dystonia, dyskinesias, akathisia, and bradykinesia which are rated by a scoring system. The conventional neuroleptic drug haloperidol is given as a challenge.

Weaver mutant mouse = assay: Weaver mutant mouse, locomotor activity; type: in vivo; settings: activity cages
From the text: Typical genetic models in mutant animals are the Campus Syndrome in the Pietrain pig according to A. Richter et al. (Exp. Neurology, 1995; 134: 205-213) or the Weaver mutant mouse according to J. R. Simon and B. Ghetti (Mol. Neurobiol., 1994; 9: 183-189). In the Campus Syndrome model, these mutant pigs show a high-frequency tremor when standing and during locomotion, but not while lying at rest. Assessment of tremor is made by accelerometric recording. In the Weaver mutant mouse, degenerative cerebellar atrophy is found in association with tremor, gait instability, and toppling over the sides after a few steps.

[6] = tested on: oxotremorine-induced tremor; assay: Oxotremorine-induced tremor (rating scale); type: in vivo
Protocol: A typical animal model for drug-induced tremors is the oxotremorine-induced tremor (e.g. H. Hallberg and O. Almgren, Acta Physiol. Scand., 1987; 129: 407-13; J. G. Clement and W. R. Dyck, J. Pharmacol. Meth., 1989; 22: 25-36). Oxotremorine induces tremor which is measured by a rating scale. (−)-(R)-2-{4-[[3,4-dihydro-2H-benzopyran-2-yl)-methyl]amino]butyl}-1,2-benzoisothiazol-3-(2H)-on-1,1-dioxide or one of its pharmaceutically acceptable salt inhibit oxotremorine-induced tremors.

[7] = Abnormal Involuntary Movement Scale

Q: Which results are given for `O=C1c2ccccc2S(=O)(=O)N1CCCCNC[C@H]1CCc2ccccc2O1` [(−)-(R)-2-{4-[[3,4-dihydro-2H-benzopyran-2-yl)-methyl]amino]butyl}-1,2-benzoisothiazol-3-(2H)-on-1,1-dioxide]?
A: dystonic dyskinesias [1, 7]: reduced; overall choreiform dyskinesias [1, 7]: reduced; psychotic states ([1]; rating of attention, reactivity and mobility): reduced; akinesia [2]: dose-dependently reduced akinesia; distance travelled and time active ([2]; activity meters): restored distance travelled and time active to about the level of normal animals; nocturnal akinesia (hypoactivity) (3-NP treated rats; after four injections of 3-NP (late Huntington's disease)): reduced; nocturnal hyperactivity (3-NP treated rats; after two injections of 3-NP (early Huntington's disease)): reduced; involuntary motor performance ([3]; AIMS, UHDRS, video): significant improvement; voluntary motor performance ([3]; UHDRS motor scale): significant improvement; muscle tone enhanced by haloperidol [4]: decreased; extrapyramidal motor side effects (dystonia, dyskinesias, akathisia, bradykinesia) [5]: dose-dependently reduce; locomotor activity (Weaver mutant mouse): enhanced locomotor activity; oxotremorine-induced tremors [6]: inhibit
